Experimental data: patent publication US20260078239A1, “USE OF AN ANTIOXIDANT FOR REDUCING AND/OR PREVENTING THE TOXICITY OF A RUBBER COMPOSITION” (NYCO, priority 2022, published 2026)

How the values were obtained:
[1] = hazard statements in words; cited from earlier work
whole adult planarians = settings: 0.22-22 mg/L, 12 days, control points at 7 and 12 days; for Concentration above which behavioral problems potentially linked to cognitive problems in the planarian are observed: adhesion, speed of movement, rest, phototaxis, scrunching

SMILES | Toxicity (confirmed toxicity, ECHA substance information) [1] | Concentration above which significant mortality of planarian is observed according to Zhang et al., Neurotoxicology and Teratology, 2019 (whole adult planarians) [mg/L] | Concentration above which behavioral problems potentially linked to cognitive problems in the planarian are observed (whole adult planarians) [ng/mL]
CC(C)(C)c1cc(Cc2cc(C(C)(C)C)c(O)c(C(C)(C)C)c2)cc(C(C)(C)C)c1O [Example 3, 4,4′-Methylene-bis-(2,6-di-tert-butylphenol)] | Under evaluation as an endocrine | – | –
c1ccc(Nc2ccc(Nc3ccccc3)cc2)cc1 [DPPD, N,N′-diphenyl-p-phenylenediamine] | Is harmful to aquatic life with long-term | – | –
CC(C)CC(C)Nc1ccc(Nc2ccccc2)cc1 (centres unmarked) [Example 22, N-(1,3-Dimethylbutyl)-N′-phenyl-p-phenylenediamine] | Harms fertility or has a negative impact | 4.8 | 1500
c1ccc(Nc2ccc(NC3CCCCC3)cc2)cc1 [CPPD, N-cyclohexyl-N′-phenyl-p-phenylenediamine] | Is toxic to aquatic life with long-term | – | –
c1ccc(Nc2cccc3ccccc23)cc1 [Example 19, N-phenylnaphthalene-1-amine] | – | 6.9 | 2200 to 3900
